Measurements: ChEMBL document CHEMBL1201862, “PubChem BioAssay data set” (2004)
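A five-concentration, 48-hour dose response in 96-well plates underlies each endpoint, interpolated linearly between surrounding concentrations. GI50 marks 50% less growth.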 Calls of active or inactive are those of the source. Rule as the data show it: active = GI50 up to about 1.1 µM and inactive = higher.

How the values were obtained:
Assay in all cases: NCI-60 cell line screen, 48 h
[1] = system: M19-MEL
[2] = system: RXF 393
[3] = system: OVCAR-3
[4] = system: Hs-578T
[5] = system: EKVX
[6] = system: UACC-62
[7] = system: BT-549
[8] = system: HL-60
[9] = system: NCI-H23
[10] = system: PC-3
[11] = system: SF-268
[12] = system: A498
[13] = system: SF-295
[14] = system: HCC 2998
[15] = system: SK-OV-3
[16] = system: OVCAR-8
[17] = system: SNB-19
[18] = system: RPMI-8226
[19] = system: OVCAR-5
[20] = system: HCT-116
[21] = system: NCI/ADR-RES
[22] = system: OVCAR-4
[23] = system: SN12C
[24] = system: U-251
[25] = system: IGROV-1
[26] = system: UACC-257
[27] = system: XF498
[28] = system: UO-31
[29] = system: SK-MEL-2
[30] = system: CCRF-CEM
[31] = system: A549
[32] = system: SNB-78
[33] = system: TK-10
[34] = system: DMS-114
[35] = system: 786-0
[36] = system: K562
[37] = system: T47D
[38] = system: HT-29
[39] = system: KM-20L2
[40] = system: SW-620
[41] = system: SR
[42] = system: NCI-H226
[43] = system: SK-MEL-28
[44] = system: HOP-62
[45] = system: MDA-MB-231
[46] = system: ACHN
[47] = system: SK-MEL-5
[48] = system: CAKI-1
[49] = system: MDA-N
[50] = system: Malme-3M
[51] = system: LOX IMVI
[52] = system: M14
[53] = system: SNB-75
[54] = system: DLD-1
[55] = system: HCT-15
[56] = system: HOP-92
[57] = system: HOP-18
[58] = system: DMS-273
[59] = system: MDA-MB-435
[60] = system: SF-539
[61] = system: COLO 205
[62] = system: DU-145
[63] = system: MOLT-4
[64] = system: KM12
[65] = system: LXFL 529
[66] = system: NCI-H522
[67] = system: NCI-H460
[68] = system: MCF7

Measured: GI50

C/C(=C\COc1ccc2ccc(=O)oc2c1)C1=CC(=O)C(C)(C)O1 [GEIPARVARIN]
inactive: [1] 4.61 µM | [2] 2.01 µM | [3] 3.7 µM | [4] 2.51 µM | [5] 5.64 µM | [6] 3.94 µM | [7] 3.69 µM | [8] 2.29 µM | [9] 3.29 µM | [10] 6.58 µM | [11] 3.93 µM | [12] 4.6 µM | [13] 2.43 µM | [14] 3.94 µM | [15] 7.87 µM | [16] 7.11 µM | [17] 6.15 µM | [18] 2.04 µM | [19] 10.2 µM | [20] 2.22 µM | [21] 2.64 µM | [22] 3.08 µM | [23] 3.94 µM | [24] 4.3 µM | [25] 4.63 µM | [26] 4.69 µM | [27] 4.1 µM | [28] 6.11 µM | [29] 3.66 µM | [30] 1.51 µM | [31] 7.67 µM | [32] 4.15 µM | [33] 5.07 µM | [34] 4.19 µM | [35] 3.74 µM | [36] 4.39 µM | [37] 3.68 µM | [38] 4.01 µM | [39] 3.39 µM | [40] 3.43 µM | [41] 1.68 µM | [42] 3.32 µM | [43] 4.23 µM | [44] 5.47 µM | [45] 5.18 µM | [46] 4.39 µM | [47] 3.45 µM | [48] 4.83 µM | [49] 3.28 µM | [50] 5.58 µM | [51] 1.89 µM | [52] 4.04 µM | [53] 5.01 µM | [54] 2.26 µM | [56] 3.76 µM | [57] 66.7 µM | [58] 4.42 µM | [59] 3.48 µM | [60] 2.17 µM | [61] 4.14 µM | [62] 2.53 µM | [63] 4.14 µM
3.04 µM: [55]

O=C(OC/C=C1C=C(OC(=O)c2ccccc2)/C(=N/N(C(=O)c2ccccc2)c2ccccc2)O\1)c1ccccc1
inactive: [2] 2.12 µM | [27] 15.8 µM | [32] 26.3 µM | [34] 12.8 µM
active: [64] < 0.01 µM | [14] < 0.01 µM | [17] < 0.01 µM | [18] < 0.01 µM | [36] < 0.01 µM | [41] < 0.01 µM | [42] 0.512 µM | [48] < 0.01 µM | [57] < 0.01 µM | [63] < 0.01 µM

CC1COS(=O)N1c1ccccc1 (stereo not given)
> 100 µM: [55]
inactive: [1] > 100 µM | [2] > 100 µM | [5] > 100 µM | [6] > 100 µM | [8] > 100 µM | [9] > 100 µM | [11] > 100 µM | [12] > 100 µM | [64] > 100 µM | [13] > 100 µM | [65] > 100 µM | [14] > 100 µM | [15] > 100 µM | [16] > 100 µM | [18] > 100 µM | [19] > 100 µM | [66] > 100 µM | [22] > 100 µM | [24] > 100 µM | [25] > 100 µM | [26] > 100 µM | [27] > 100 µM | [28] > 100 µM | [29] > 100 µM | [30] > 100 µM | [31] > 100 µM | [33] > 100 µM | [34] > 100 µM | [35] > 100 µM | [36] > 100 µM | [38] > 100 µM | [39] > 100 µM | [40] > 100 µM | [42] > 100 µM | [43] > 100 µM | [44] > 100 µM | [46] > 100 µM | [47] > 100 µM | [50] > 100 µM | [51] > 100 µM | [52] > 100 µM | [53] > 100 µM | [54] > 100 µM | [56] > 100 µM | [57] > 100 µM | [67] > 100 µM | [58] > 100 µM | [61] > 100 µM | [63] > 100 µM

CSC1C=C(C(C)C)CCC1(C)SC (stereo not given)
inactive: [1] 16.9 µM | [2] 15.5 µM | [3] 12.6 µM | [5] 24.5 µM | [6] 25.6 µM | [8] 2.3 µM | [9] 19.3 µM | [11] 20.6 µM | [12] 25.6 µM | [64] 14.3 µM | [65] 18.4 µM | [14] 16.6 µM | [15] 21.4 µM | [16] 19.4 µM | [17] 21.2 µM | [18] 20.9 µM | [19] 16.2 µM | [66] 16.3 µM | [20] 19.2 µM | [22] 18.1 µM | [23] 16.9 µM | [24] 19.5 µM | [25] 20.9 µM | [26] 15.9 µM | [27] 19.6 µM | [28] 14.3 µM | [29] 17.7 µM | [30] 21 µM | [31] 31.5 µM | [32] 16.5 µM | [33] 21.4 µM | [34] 15.7 µM | [35] 17.8 µM | [36] 16.7 µM | [38] 15.4 µM | [39] 28.2 µM | [40] 19.9 µM | [42] 17.4 µM | [43] 19.4 µM | [44] 19.5 µM | [46] 18.7 µM | [47] 17.5 µM | [48] 18.3 µM | [50] 13.3 µM | [51] 18.3 µM | [52] 16.9 µM | [53] 17.6 µM | [54] 18 µM | [56] 16.2 µM | [67] 17.2 µM | [58] 19 µM | [60] 18.7 µM | [61] 16.2 µM | [63] 16.5 µM
21 µM: [55]

CC1=CC(=O)c2ccc3c4ccccc4n(C)c3c2C1=O
25.5 µM: [55]
inactive: [1] 10.1 µM | [2] 43.6 µM | [3] 54.8 µM | [4] 62.8 µM | [5] > 19.8 µM | [7] 41.8 µM | [8] 22.8 µM | [9] 14 µM | [11] > 70 µM | [12] 83.6 µM | [64] 34.4 µM | [13] > 54.5 µM | [65] 25.8 µM | [14] > 96.4 µM | [15] > 100 µM | [16] 58.9 µM | [17] 39.1 µM | [18] > 41.2 µM | [19] > 100 µM | [66] 28.4 µM | [20] > 88.5 µM | [21] > 100 µM | [22] 74 µM | [23] > 69 µM | [24] 49 µM | [25] 16.9 µM | [68] 12 µM | [26] 46.3 µM | [27] 29.2 µM | [28] > 65.9 µM | [29] 16.2 µM | [30] 20.8 µM | [31] 48.2 µM | [32] 90.8 µM | [33] > 100 µM | [34] 27.7 µM | [35] 56 µM | [36] 16.1 µM | [37] 33.8 µM | [38] > 31.6 µM | [40] 92.3 µM | [42] > 94.4 µM | [43] 60.7 µM | [44] 24.9 µM | [45] 70.6 µM | [46] 55.6 µM | [47] 13.6 µM | [48] 36.2 µM | [49] 16.6 µM | [50] 6.67 µM | [52] 17.8 µM | [53] 54.1 µM | [54] 62.8 µM | [56] > 46.5 µM | [57] 4.4 µM | [67] 29.4 µM | [58] 43.4 µM | [59] 17.1 µM | [60] > 100 µM | [61] > 85.9 µM | [62] 63.2 µM | [63] 19.4 µM
